Results reported in ChEMBL document CHEMBL5214932, “A closer look at N2,6-substituted 1,3,5-triazine-2,4-diamines: Advances in synthesis and biological activities” (Eur J Med Chem, 2022).

Columns and labels:
[1] = system: Human immunodeficiency virus 1; experiment: Antiviral activity against wild type HIV1 IIIB assessed as viral growth inhibition measured after 5 days by MTT assay; type: functional, organism-based; details: Human immunodeficiency virus 1, IIIB, 120 h
[2] = system: Human immunodeficiency virus 1; experiment: Antiviral activity against NNRTI resistant HIV1 harboring Leu100IIe mutant infected in human MT4 cells assessed as reduction in virus-induced cytopathic effect measured after 5 days by MTT assay; type: functional, organism-based; details: Human immunodeficiency virus 1, MT4, 120 h
[3] = system: Human immunodeficiency virus 1; experiment: Antiviral activity against NNRTI resistant HIV1 harboring Lys103Asn mutant infected in human MT4 cells assessed as reduction in virus-induced cytopathic effect measured after 5 days by MTT assay; type: functional, organism-based; details: Human immunodeficiency virus 1, MT4, 120 h
[4] = system: Human immunodeficiency virus 1; experiment: Antiviral activity against NNRTI resistant HIV1 harboring Val106Ala mutant infected in human MT4 cells assessed as reduction in virus-induced cytopathic effect measured after 5 days by MTT assay; type: functional, organism-based; details: Human immunodeficiency virus 1, MT4, 120 h
[5] = system: Human immunodeficiency virus 1; experiment: Antiviral activity against NNRTI resistant HIV1 harboring Tyr181Cys mutant infected in human MT4 cells assessed as reduction in virus-induced cytopathic effect measured after 5 days by MTT assay; type: functional, organism-based; details: Human immunodeficiency virus 1, MT4, 120 h
[6] = system: Human immunodeficiency virus 1; experiment: Antiviral activity against NNRTI resistant HIV1 harboring Gly190Ala mutant infected in human MT4 cells assessed as reduction in virus-induced cytopathic effect measured after 5 days by MTT assay; type: functional, organism-based; details: Human immunodeficiency virus 1, MT4, 120 h
[7] = system: Human immunodeficiency virus 1; experiment: Antiviral activity against NNRTI resistant HIV1 LAI infected in human MT4 cells assessed as reduction in virus-induced cytopathic effect measured after 5 days by MTT assay; type: functional, organism-based; details: Human immunodeficiency virus 1, LAI, MT4, 120 h
[8] = Cytotoxicity against human IM-9 cells assessed as cell growth inhibition; type: toxicity, cell-based
Jurkat = experiment: Cytotoxicity against human Jurkat cells assessed as cell growth inhibition; type: functional, cell-based
Daudi = experiment: Cytotoxicity against human Daudi cells assessed as cell growth inhibition; type: functional, cell-based
HL-60 = experiment: Cytotoxicity against human HL-60 cells assessed as cell growth inhibition; type: functional, cell-based
MCF7 = experiment: Cytotoxicity against human MCF7 cells assessed as cell growth inhibition; type: functional, cell-based
DU-145 = experiment: Cytotoxicity against human DU-145 cells assessed as cell growth inhibition; type: functional, cell-based
[9] = Cytotoxicity against mouse LL2 cells assessed as cell growth inhibition; type: functional, cell-based; details: Lewis lung carcinoma
SK-OV-3 [10] = experiment: Cytotoxicity against human SK-OV-3 cells assessed as cell growth inhibition; type: functional, cell-based
[11] = Cytotoxicity against human MHOC-59 cell assessed as cell growth inhibition; type: functional, cell-based
AN3-CA = experiment: Cytotoxicity against human AN3-CA cells assessed as cell growth inhibition; type: functional, cell-based
HEC-1-A = experiment: Cytotoxicity against human HEC-1-A cells assessed as cell growth inhibition; type: functional, cell-based
K562 = experiment: cells; details: Homo sapiens
Description: Cytotoxicity against human K562 cells assessed as cell growth inhibition

[12] = system: Human immunodeficiency virus 1; experiment: Antiviral activity against NNRTI resistant HIV1 harboring Tyr188Leu mutant infected in human MT4 cells assessed as reduction in virus-induced cytopathic effect measured after 5 days by MTT assay; type: functional, organism-based; details: Human immunodeficiency virus 1, MT4, 120 h
[13] = target: T1, Equilibrative nucleoside transporter 1 (Homo sapiens, UniProt Q99808); experiment: Inhibition of human ENT1 transfected in nucleoside transporter-deficient pig PK-15 cells assessed as inhibition of [3H]-uridine uptake by liquid scintillation counter analysis; type: cell-based
T1 sequence (Q99808 whole entry): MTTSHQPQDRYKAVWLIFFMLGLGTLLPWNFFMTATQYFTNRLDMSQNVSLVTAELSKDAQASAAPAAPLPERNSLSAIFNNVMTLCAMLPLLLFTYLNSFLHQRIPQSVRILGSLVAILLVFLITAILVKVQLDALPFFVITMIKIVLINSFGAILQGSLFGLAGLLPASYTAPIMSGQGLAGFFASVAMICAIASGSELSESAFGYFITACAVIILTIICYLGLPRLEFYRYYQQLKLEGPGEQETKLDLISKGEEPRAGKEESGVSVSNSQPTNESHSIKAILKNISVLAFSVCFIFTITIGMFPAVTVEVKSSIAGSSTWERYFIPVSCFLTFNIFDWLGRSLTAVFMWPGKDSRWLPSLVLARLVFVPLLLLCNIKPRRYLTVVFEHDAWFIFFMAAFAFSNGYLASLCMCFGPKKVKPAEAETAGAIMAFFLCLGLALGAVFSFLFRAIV

[14] = target: T2, Equilibrative nucleoside transporter 2 (Homo sapiens, UniProt Q14542); experiment: Inhibition of human ENT2 transfected in nucleoside transporter-deficient pig PK-15 cells assessed as inhibition of [3H]-uridine uptake by liquid scintillation counter analysis; type: cell-based
T2 sequence (Q14542 whole entry): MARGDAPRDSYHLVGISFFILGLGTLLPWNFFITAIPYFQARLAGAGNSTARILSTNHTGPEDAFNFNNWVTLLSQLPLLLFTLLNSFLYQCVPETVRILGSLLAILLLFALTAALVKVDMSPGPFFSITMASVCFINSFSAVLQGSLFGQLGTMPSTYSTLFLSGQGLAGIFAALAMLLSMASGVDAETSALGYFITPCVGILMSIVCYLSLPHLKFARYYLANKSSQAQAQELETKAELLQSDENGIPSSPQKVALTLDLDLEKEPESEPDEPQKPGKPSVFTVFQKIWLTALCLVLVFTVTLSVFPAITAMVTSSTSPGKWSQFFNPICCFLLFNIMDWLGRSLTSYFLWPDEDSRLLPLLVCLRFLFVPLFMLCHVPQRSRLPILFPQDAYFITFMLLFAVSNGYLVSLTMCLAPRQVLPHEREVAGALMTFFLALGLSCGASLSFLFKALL

A-427 = experiment: Cytotoxicity against human A-427 cells assessed as cell growth inhibition measured after 96 hrs by microplate reader analysis; type: functional, cell-based; details: A-427, 96 h
DAN-G = experiment: Cytotoxicity against human DAN-G cells assessed as cell growth inhibition measured after 96 hrs by microplate reader analysis; type: functional, cell-based
LCLC = experiment: Cytotoxicity against human LCLC cells assessed as cell growth inhibition measured after 96 hrs by microplate reader analysis; type: functional, cell-based
SISO = experiment: Cytotoxicity against human SISO cells assessed as cell growth inhibition measured after 96 hrs by microplate reader analysis; type: functional, cell-based
RT-4 = experiment: Cytotoxicity against human RT-4 cells assessed as cell growth inhibition measured after 96 hrs by microplate reader analysis; type: functional, cell-based; details: RT-4, 96 h
[15] = Cytotoxicity against […] cells assessed as cell growth inhibition measured after 72 hrs by CellTiter-Glo assay; type: functional, cell-based; details: Hepa1-6, 72 h
[16] = Cytotoxicity against human Hepa 1-6/R cells assessed as cell growth inhibition measured after 72 hrs by CellTiter-Glo assay; type: functional, cell-based
[17] = target: 5-hydroxytryptamine receptor 6 (Homo sapiens, UniProt P50406); experiment: Displacement of [3H]-LSD from human 5-HT6R expressed in HEK293 cells by radioligand binding assay; type: cell-based
[18] = target: T3, Free fatty acid receptor 1 (Homo sapiens, UniProt O14842); experiment: Positive allosteric modulation of GPR40 (unknown origin) at 100 uM assessed as maximum efficacy relative to control; details: filed as positive allosteric modulator
[19] = target: T3, Free fatty acid receptor 1; experiment: Positive allosteric modulation of GPR40 (unknown origin)
[20] = target: 5-hydroxytryptamine receptor 7 (Homo sapiens, UniProt P34969); experiment: Displacement of [3H]-5Carboxyamidotryptamine from human 5-HT7R expressed in HEK293 cells by radioligand binding assay; type: cell-based
[21] = target: 1-acyl-sn-glycerol-3-phosphate acyltransferase beta (Homo sapiens, UniProt O15120); experiment: Inhibition of LPAAT-beta (unknown origin) expressed in Xenopus laevis oocytes incubated for 3 mins; type: cell-based, Oocyte
HeLa = experiment: Cytotoxicity against human HeLa cells assessed as cell growth inhibition incubated for 96 hrs by WST-8 assay; type: functional, cell-based
[22] = Cytotoxicity against human HCO cell assessed as cell growth inhibition incubated for 96 hrs by WST-8 assay; type: functional, cell-based
HEK293 = experiment: Cytotoxicity against HEK293 cells assessed as cell growth inhibition incubated for 96 hrs by WST-8 assay; type: functional, cell-based; details: Homo sapiens, HEK293, 96 h
MEF = experiment: Cytotoxicity against mouse MEF cells assessed as cell growth inhibition incubated for 96 hrs by WST-8 assay; type: functional, cell-based
SK-OV-3 [23] = experiment: Cytotoxicity against human SK-OV-3 cells assessed as cell growth inhibition incubated for 96 hrs by WST-8 assay; type: functional, cell-based; details: SK-OV-3, 96 h

Chain of 1-acyl-sn-glycerol-3-phosphate acyltransferase beta (O15120 whole entry): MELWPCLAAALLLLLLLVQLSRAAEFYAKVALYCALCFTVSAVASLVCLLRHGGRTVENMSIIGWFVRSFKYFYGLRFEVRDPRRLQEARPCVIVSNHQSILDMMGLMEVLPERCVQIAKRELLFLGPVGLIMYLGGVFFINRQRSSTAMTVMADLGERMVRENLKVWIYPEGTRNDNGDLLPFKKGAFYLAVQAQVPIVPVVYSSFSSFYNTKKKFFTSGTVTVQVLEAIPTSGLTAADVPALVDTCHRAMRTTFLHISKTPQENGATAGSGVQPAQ
T3 sequence (O14842 whole entry): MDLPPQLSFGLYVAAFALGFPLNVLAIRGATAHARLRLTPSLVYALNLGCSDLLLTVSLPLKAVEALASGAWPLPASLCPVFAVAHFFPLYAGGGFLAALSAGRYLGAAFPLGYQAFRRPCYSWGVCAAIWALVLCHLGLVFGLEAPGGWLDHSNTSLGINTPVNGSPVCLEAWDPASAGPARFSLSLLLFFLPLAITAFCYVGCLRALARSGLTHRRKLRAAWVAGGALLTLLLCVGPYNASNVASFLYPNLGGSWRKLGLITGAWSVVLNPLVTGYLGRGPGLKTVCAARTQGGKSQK
Chain of 5-hydroxytryptamine receptor 6 (P50406 whole entry): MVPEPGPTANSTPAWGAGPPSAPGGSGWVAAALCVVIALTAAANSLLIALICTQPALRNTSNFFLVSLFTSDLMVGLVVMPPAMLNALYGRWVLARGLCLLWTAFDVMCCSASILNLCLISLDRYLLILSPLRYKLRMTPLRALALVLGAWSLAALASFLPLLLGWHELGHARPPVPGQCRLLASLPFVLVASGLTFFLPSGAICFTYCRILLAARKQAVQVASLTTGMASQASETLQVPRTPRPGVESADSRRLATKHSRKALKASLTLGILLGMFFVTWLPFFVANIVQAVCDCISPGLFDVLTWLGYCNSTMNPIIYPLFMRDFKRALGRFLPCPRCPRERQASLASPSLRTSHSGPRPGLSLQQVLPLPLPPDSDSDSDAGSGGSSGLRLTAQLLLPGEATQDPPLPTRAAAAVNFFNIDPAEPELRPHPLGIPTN
Chain of 5-hydroxytryptamine receptor 7 (P34969 whole entry): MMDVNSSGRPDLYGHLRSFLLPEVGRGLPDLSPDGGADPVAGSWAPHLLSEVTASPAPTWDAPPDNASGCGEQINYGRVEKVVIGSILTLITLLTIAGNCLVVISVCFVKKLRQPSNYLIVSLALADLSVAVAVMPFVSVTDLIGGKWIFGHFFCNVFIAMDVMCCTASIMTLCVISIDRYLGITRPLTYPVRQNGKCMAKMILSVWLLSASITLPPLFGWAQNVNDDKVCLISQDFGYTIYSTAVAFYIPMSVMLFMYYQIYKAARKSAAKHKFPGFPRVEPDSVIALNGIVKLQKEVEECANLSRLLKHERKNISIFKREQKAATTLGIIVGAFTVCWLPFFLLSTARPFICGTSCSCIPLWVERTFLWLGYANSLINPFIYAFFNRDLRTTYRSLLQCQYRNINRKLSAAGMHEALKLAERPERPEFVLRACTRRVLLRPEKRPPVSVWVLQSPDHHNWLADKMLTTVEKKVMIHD

For `N#Cc1ccc(Nc2nc(N)nc(Cc3c(Cl)cccc3Cl)n2)cc1`, the IC50 [1] was 2 nM, the IC50 [2] was 293 nM and the IC50 [3] was 40 nM. It also gave an IC50 [4] of 26 nM, an IC50 [5] of 200 nM and an IC50 [6] of 1 nM. The IC50 [7] was 6.3 nM.

`CCOc1ccc(Cl)cc1-c1nc(N)nc(Nc2ccc(Cl)cc2)n1` showed an IC50 [8] of 20 nM, an IC50 (Jurkat) of 30 nM and an IC50 (Daudi) of 10 nM. It also gave an IC50 (HL-60) of 30 nM, an IC50 (MCF7) of 50 nM and an IC50 (DU-145) of 30 nM. The IC50 [9] was 20 nM, the IC50 (SK-OV-3 [10]) was 32 nM and the IC50 [11] was 80 nM. For the same compound, the IC50 (AN3-CA) was 33 nM, the IC50 (HEC-1-A) was 54 nM and the IC50 (K562) was 30 nM.

With `N#Cc1ccc(Nc2nc(N)nc(Cc3c(Cl)ccc4[nH]ccc34)n2)cc1` the IC50 [1] was 3 nM, the IC50 [2] was 1000 nM and the IC50 [3] was 63 nM. For the same compound, the IC50 [4] was 63 nM, the IC50 [5] was 250 nM and the IC50 [12] was 1000 nM. The IC50 [6] was 3 nM.

For `Cc1cccc(Nc2nc(N)nc(CN3CCN(c4ccc(F)cc4)CC3)n2)c1`, the IC50 [13] was 2380 nM and the IC50 [14] was 570 nM.

With `CCN(CC)c1ccc2cc(-c3nc(N)nc(N4CCN(c5ccccc5)CC4)n3)c(=N)oc2c1` the IC50 (A-427) was 1510 nM, the IC50 (DAN-G) was 2140 nM and the IC50 (LCLC) was 2210 nM. For the same compound, the IC50 (SISO) was 2600 nM and the IC50 (RT-4) was 1660 nM.

For `C[C@H](CCc1nc(N)nc(N(C)C)n1)[C@H]1CC[C@H]2[C@@H]3[C@@H](O)C[C@@H]4C[C@H](O)CC[C@]4(C)[C@H]3CC[C@]12C`, the IC50 [15] was 28600 nM and the IC50 [16] was 30300 nM.

`CC(Oc1ccccc1Cl)c1nc(N)nc(N2CCN(C)CC2)n1` (stereo unspecified) gave a Ki [17] of 28 nM.

`Cc1ccccc1Nc1nc(N)nc(COc2ccc3c(C)cc(=O)oc3c2)n1` gave an Emax [18] of 134% and an EC50 [19] of 776 nM.

`CCC(Oc1cc(Cl)ccc1Cl)c1nc(N)nc(N2CCN(C)CC2)n1` (stereo unspecified) showed a Ki [20] of 5710 nM.

`CCc1c(-c2nc(N)nc(Nc3ccc(C)cc3)n2)oc2ccccc12` gave an IC50 [21] of 8.4 nM, an IC50 (HeLa) of 140 nM and an IC50 [22] of 102 nM. It also gave an IC50 (HEK293) of 51 nM, an IC50 (MEF) of 62 nM and an IC50 (SK-OV-3 [23]) of 179 nM.

Compound `CCc1ccc(Nc2nc(N)nc(-c3oc4ccccc4c3C)n2)cc1` has an IC50 [21] of 15 nM, an IC50 (HeLa) of 111 nM and an IC50 [22] of 63 nM. It also gave an IC50 (HEK293) of 25 nM, an IC50 (MEF) of 48 nM and an IC50 (SK-OV-3 [23]) of 79 nM.
